The values below come from patent publication US10457689B2, “Ammonium derivatives, a process for their preparation and pharmaceutical compositions containing them” (LES LABORATOIRES SERVIER, priority 2016, dated 2019).

In experiment [1] the test system is H929 multiple myeloma tumour line. Put plainly: In vitro cytotoxicity (MTT). The class given is cell-based. As to conditions: 48 hours exposure. On the procedure:
The cytotoxicity studies were carried out on the H929 multiple myeloma tumour line.
The cells are distributed onto microplates and exposed to the test compound for 48 hours.
The cell viability is then quantified by a colorimetric assay, the Microculture Tetrazolium Assay (Carmichael et al. Cancer Res. 1987, 47, 936-942).

Experiment [2] has as its target Mcl-1 protein (Homo sapiens, UniProt Q07820). Put plainly: Inhibition of Mcl-1 by the fluorescence polarisation technique. The class given is binding. As to conditions: fluorescence polarisation test; read-out: IC50 (M) Mcl-LFP. The method, then:
The relative, binding potency of each compound was determined via Fluorescence Polarisation (FP). The method utilised a Fluorescein labelled ligand (Fluorescein-βAla-Ahx-A-REIGAQLRRMADDLNAQY-OH; mw 2,765) which binds to the Mcl-1 protein (such that Mcl-1 corresponds to the UniProtKB® primary accession number: Q07820) leading to an increased anisotropy measured in milli-polarisation (mP) units using a reader. The addition of a compound which binds competitively to the same site as the ligand will result in a greater proportion of unbound ligand in the system indicated by a decrease in mP units.
An 11 point serial dilution of each compound was prepared in DMSO and 2 μl transferred into flat bottomed, low binding, 384-well plate (final DMSO concentration 5%), 38 μl of buffer (10 mM 4-(2-hydroxyethyl)-1-piperazineethanesolfonic acid [HEPES], 150 mM NaCl, 0.05% Tween 20, pH 7.4), containing the Fluorescein labelled ligand (final concentration 1 nM) and Mcl-1 protein (final concentration 5 nM) was then added.
Assay plates were incubated ˜2 hours at room temperature before FP was measured on a […] Synergy2 reader (Ex. 528 nm, Em. 640 nm, Cut off 510 nm) and mP units calculated. The binding of increasing doses of test compound was expressed as a percentage reduction in mP compared to a window established between ‘5% DMSO only’ and ‘100% inhibition’ controls. 11-point dose response curves were plotted with XL-Fit software using a 4-Parameter Logistic Model (Sigmoidal Dose-Response Model) and the inhibitory concentrations that gave a 50% reduction in mP (IC50) were determined.

Setting [3] is: Homo sapiens, NCI-H929, H929 cells.

The structures appear in SMILES notation. Counter-ions that a name gives are not always drawn.

Sequence of Mcl-1 protein (Q07820 whole entry): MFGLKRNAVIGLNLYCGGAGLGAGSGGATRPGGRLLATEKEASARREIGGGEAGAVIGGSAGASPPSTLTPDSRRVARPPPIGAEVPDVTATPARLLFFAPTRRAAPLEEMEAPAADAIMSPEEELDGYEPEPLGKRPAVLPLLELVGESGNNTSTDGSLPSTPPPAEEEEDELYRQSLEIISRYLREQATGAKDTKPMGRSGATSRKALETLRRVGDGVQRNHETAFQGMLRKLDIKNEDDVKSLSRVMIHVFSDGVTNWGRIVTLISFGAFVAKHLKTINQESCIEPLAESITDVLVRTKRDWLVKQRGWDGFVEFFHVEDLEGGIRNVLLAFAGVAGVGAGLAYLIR

As a reminder, the IC50 is the concentration needed to halve the response being measured. Regarding `CCOC(=O)OC[N+]1(C)CCN(CCOc2ccc(-c3c(-c4ccc(F)cc4)sc4ncnc(OC(Cc5ccccc5OCc5ccnc(-c6ccccc6OC)n5)C(=O)O)c34)c(C)c2Cl)CC1` [Example 18, 4-[2-(4-{(5Sa)-4-[(1R)-1-carboxy-2-(2-{[2-(2-methoxyphenyl)pyrimidin-4-yl]methoxy}phenyl)ethoxy]-6-(4-fluorophenyl)thieno[2,3-d]pyrimidin-5-yl}-2-chloro-3-methylphenoxy)ethyl]-1-{[(ethoxycarbonyl)oxy]methyl}-1-methylpiperazin-1-ium], the IC50 in experiment [1] (setting [3]) is 1.74 nM; in experiment [2], 9.48e-10 M.

As for `CCN(CC)C(=O)OC(C)[N+]1(C)CCN(CCOc2ccc(-c3c(-c4ccc(F)cc4)sc4ncnc(OC(Cc5ccccc5OCc5ccnc(-c6ccccc6OC)n5)C(=O)O)c34)c(Br)c2Cl)CC1` [Example 29, 4-[2-(3-bromo-4-{(5Sa)-4-[(1R)-1-carboxy-2-(2-{[2-(2-methoxyphenyl)pyrimidin-4-yl]methoxy}phenyl)ethoxy]-6-(4-fluorophenyl)thieno[2,3-d]pyrimidin-5-yl}-2-chlorophenoxy)ethyl]-1-{1-[(diethylcarbamoyl)oxy]ethyl}-1-methylpiperazin-1-ium trifluoroacetate], the IC50 came out at 136 nM in experiment [1] (H929 cells) and 1.36e-09 M in experiment [2].

In the case of `COc1ccccc1-c1nccc(COc2ccccc2CC(Oc2ncnc3sc(-c4ccc(F)cc4)c(-c4ccc(OCCN5CC[N+](C)(COC(C)=O)CC5)c(Cl)c4C)c23)C(=O)O)n1` [Example 17, 1-[(acetyloxy)methyl]-4-[2-(4-{(5Sa)-4-[(1R)-1-carboxy-2-(2-{[2-(2-methoxyphenyl)pyrimidin-4-yl]methoxy}phenyl)ethoxy]-6-(4-fluorophenyl)thieno[2,3-d]pyrimidin-5-yl}-2-chloro-3-methylphenoxy)ethyl]-1-methylpiperazin-1-ium trifluoroacetate], the figures for the IC50 in experiment [1] (H929 cells) and in experiment [2] were 2.15 nM and 1.12e-09 M, respectively.

As for `COc1ccccc1-c1nccc(COc2ccccc2CC(Oc2ncnc3sc(-c4ccc(F)cc4)c(-c4ccc(OCCN5CC[N+](C)(COP(=O)([O-])O)CC5)c(Cl)c4Br)c23)C(=O)O)n1` [Example 5, {4-[2-(3-bromo-4-{(5Sa)-4-[(1R)-1-carboxy-2-(2-{[2-(2-methoxyphenyl)pyrimidin-4-yl]methoxy}phenyl)ethoxy]-6-(4-fluorophenyl)thieno[2,3-d]pyrimidin-5-yl}-2-chlorophenoxy)ethyl]-1-methylpiperazin-1-ium-1-yl}methyl hydrogen phosphate], the half-inhibitory concentration (IC50) was determined as 55.4 nM in experiment [1] (setting [3]) and 1.06e-09 M in experiment [2].

Turning to `COc1ccccc1-c1nccc(COc2ccccc2CC(Oc2ncnc3sc(-c4ccc(F)cc4)c(-c4ccc(OCCN5CC[N+](C)(COC(=O)C(C)(C)C)CC5)c(Cl)c4C)c23)C(=O)O)n1` [Example 24, 4-[2-(4-{(5Sa)-4-[(1R)-1-carboxy-2-(2-{[2-(2-methoxyphenyl)pyrimidin-4-yl]methoxy}phenyl)ethoxy]-6-(4-fluorophenyl)thieno[2,3-d]pyrimidin-5-yl}-2-chloro-3-methylphenoxy)ethyl]-1-{[(2,2-dimethylpropanoyl)oxy]methyl}-1-methylpiperazin-1-ium trifluoroacetate], the 50% inhibitory concentration (IC50) in experiment [1] (H929 cells) came out at 2.52 nM; in experiment [2], 1.04e-09 M.

For `CCOC(=O)OC[N+]1(C)CCN(CCOc2ccc(-c3c(-c4ccc(F)cc4)sc4ncnc(OC(Cc5ccccc5OCc5ccnc(-c6ccccc6OC)n5)C(=O)O)c34)c(Br)c2Cl)CC1` [Example 26, 4-[2-(3-bromo-4-{(5Sa)-4-[(1R)-1-carboxy-2-(2-{[2-(2-methoxyphenyl)pyrimidin-4-yl]methoxy}phenyl)ethoxy]-6-(4-fluorophenyl)thieno[2,3-d]pyrimidin-5-yl}-2-chlorophenoxy)ethyl]-1-{[(ethoxycarbonyl)oxy]methyl}-1-methylpiperazin-1-ium trifluoroacetate], the IC50 is 2.29 nM in experiment [1] (H929 cells) and 9.48e-10 M in experiment [2].

On to `COc1ccccc1-c1nccc(COc2ccccc2CC(Nc2ncnc3sc(-c4ccc(F)cc4)c(-c4ccc(OCCN5CC[N+](C)(COP(=O)([O-])O)CC5)c(Cl)c4C)c23)C(=O)O)n1` [Example 8, N-[(5Sa)-5-{3-chloro-4-[2-(4-{[(hydroxyphosphinato)oxy]methyl}-4-methylpiperazin-4-ium-1-yl)ethoxy]-2-methylphenyl}-6-(4-fluorophenyl)thieno[2,3-d]pyrimidin-4-yl]-2-{[2-(2-methoxyphenyl)pyrimidin-4-yl]methoxy}-D-phenylalanine], for which the figures for the IC50 in experiment [1] (setting [3]) and in experiment [2] were 229 nM and 9.48e-10 M, respectively.

Take `COc1ccccc1-c1nccc(COc2ccccc2CC(Oc2ncnc3sc(-c4ccc(F)cc4)c(-c4ccc(OCCN5CC[N+](C)(Cc6oc(=O)oc6C)CC5)c(Cl)c4C)c23)C(=O)O)n1` [Example 22, 4-[2-(4-{(5Sa)-4-[(1R)-1-carboxy-2-(2-{[2-(2-methoxyphenyl)pyrimidin-4-yl]methoxy}phenyl)ethoxy]-6-(4-fluorophenyl)thieno[2,3-d]pyrimidin-5-yl}-2-chloro-3-methylphenoxy)ethyl]-1-methyl-1-[(5-methyl-2-oxo-1,3-dioxol-4-yl)methyl]piperazin-1-ium trifluoroacetate]: the IC50 turned out to be 2.23 nM in experiment [1] (H929 cells) and 9.48e-10 M in experiment [2].

With `COc1ccccc1-c1nccc(COc2ccccc2C[C@@H](Oc2ncnc3sc(-c4ccc(F)cc4)c(-c4ccc(OCCN5CC[N+](C)(COC(=O)C(C)(C)C)CC5)c(Cl)c4Br)c23)C(=O)O)n1` [Example 32, 4-[2-(3-bromo-4-{(5Sa)-4-[(1R)-1-carboxy-2-(2-{[2-(2-methoxyphenyl)pyrimidin-4-yl]methoxy}phenyl)ethoxy]-6-(4-fluorophenyl)thieno[2,3-d]pyrimidin-5-yl}-2-chlorophenoxy)ethyl]-1-{[(2,2-dimethylpropanoyl)oxy]methyl}-1-1-methyl piperazin-1-ium trifluoroacetate], the results for the IC50 in experiment [1] (H929 cells) and in experiment [2] were 2.11 nM and 1.77e-09 M, respectively.

In the case of `COc1ccccc1-c1nccc(COc2ccccc2C[C@@H](Oc2ncnc3sc(-c4ccc(F)cc4)c(-c4ccc(OCCN5CC[N+](C)(Cc6oc(=O)oc6C)CC5)c(Cl)c4Br)c23)C(=O)O)n1` [Example 30, 4-[2-(3-bromo-4-{(5Sa)-4-[(1R)-1-carboxy-2-(2-{[2-(2-methoxyphenyl)pyrimidin-4-yl]methoxy}phenyl)ethoxy]-6-(4-fluorophenyl)thieno[2,3-d]pyrimidin-5-yl}-2-chlorophenoxy)ethyl]-1-methyl-1-[(5-methyl-2-oxo-1,3-dioxol-4-yl)methyl]piperazin-1-ium trifluoroacetate], the IC50 in experiment [1] (H929 cells) was found to be 2.81 nM; in experiment [2], 9.48e-10 M.

Consider `COc1ccccc1-c1nccc(COc2ccccc2CC(Oc2ncnc3sc(-c4ccc(F)cc4)c(-c4ccc(OCCN5CC[N+](C)(COP(=O)([O-])OCc6ccccc6)CC5)c(Cl)c4C)c23)C(=O)O)n1` [Example 2, benzyl {4-[2-(4-{(5Sa)-4-[(1R)-1-carboxy-2-(2-{[2-(2-methoxyphenyl)pyrimidin-4-yl]methoxy}phenyl)ethoxy]-6-(4-fluorophenyl)thieno[2,3-d]pyrimidin-5-yl}-2-chloro-3-methylphenoxy)ethyl]-1-methylpiperazin-1-ium-1-yl}methyl phosphate], for which the IC50 was 10.9 nM in experiment [1] (setting [3]) and 9.48e-10 M in experiment [2].

On to `CCN(CC)C(=O)OC(C)[N+]1(C)CCN(CCOc2ccc(-c3c(-c4ccc(F)cc4)sc4ncnc(O[C@H](Cc5ccccc5OCc5ccnc(-c6ccccc6OC)n5)C(=O)O)c34)c(C)c2Cl)CC1` (stereo partly drawn) [Example 21, 4-[2-(4-{(5Sa)-4-[(1R)-1-carboxy-2-(2-{[2-(2-methoxyphenyl)pyrimidin-4-yl]methoxy}phenyl)ethoxy]-6-(4-fluorophenyl)thieno[2,3-d]pyrimidin-5-yl}-2-chloro-3-methylphenoxy)ethyl]-1-{1-[(diethylcarbamoyl)oxy]ethyl}-1-methylpiperazin-1-ium trifluoroacetate], for which the results for the half-maximal inhibitory concentration (IC50) in experiment [1] (H929 cells) and in experiment [2] were 70.4 nM and 1.96e-09 M, respectively.

For `CCN(CC)C(=O)OC[N+]1(C)CCN(CCOc2ccc(-c3c(-c4ccc(F)cc4)sc4ncnc(OC(Cc5ccccc5OCc5ccnc(-c6ccccc6OC)n5)C(=O)O)c34)c(Br)c2Cl)CC1` [Example 27, 1-[2-(3-bromo-4-{(5Sa)-4-[(1R)-1-carboxy-2-(2-{[2-(2-methoxyphenyl)pyrimidin-4-yl]methoxy}phenyl)ethoxy]-6-(4-fluorophenyl)thieno[2,3-d]pyrimidin-5-yl}-2-chlorophenoxy)ethyl]-1-{[(diethylcarbamoyl)oxy]methyl}-1-methylpiperazin-1-ium trifluoroacetate], the results for the IC50 in experiment [1] (H929 cells) and in experiment [2] were 1900 nM and 1.17e-09 M, respectively.
